Data taken from patent US20250270172A1, “Pyrimidine Derivatives As Modulators of the 5-HT2A Serotonin Receptor Useful For The Treatment of Disorders Related Thereto” (Arena Pharmaceuticals, Inc., priority 2020, published 2025).

Molecular target: 5-HT2A (Homo sapiens (Human), UniProt P28223)
Experiment: Radioligand binding assay, [^3H]5-HT competition, 5-HT2A
Conditions: [^3H]5-HT radioligand, membranes of HEK293 cells expressing recombinant 5-HT2A; Ki from IC50 by Cheng-Prusoff; read-out: 5-HT2A serotonin binding Ki value

Sequence of 5-HT2A (P28223 whole entry): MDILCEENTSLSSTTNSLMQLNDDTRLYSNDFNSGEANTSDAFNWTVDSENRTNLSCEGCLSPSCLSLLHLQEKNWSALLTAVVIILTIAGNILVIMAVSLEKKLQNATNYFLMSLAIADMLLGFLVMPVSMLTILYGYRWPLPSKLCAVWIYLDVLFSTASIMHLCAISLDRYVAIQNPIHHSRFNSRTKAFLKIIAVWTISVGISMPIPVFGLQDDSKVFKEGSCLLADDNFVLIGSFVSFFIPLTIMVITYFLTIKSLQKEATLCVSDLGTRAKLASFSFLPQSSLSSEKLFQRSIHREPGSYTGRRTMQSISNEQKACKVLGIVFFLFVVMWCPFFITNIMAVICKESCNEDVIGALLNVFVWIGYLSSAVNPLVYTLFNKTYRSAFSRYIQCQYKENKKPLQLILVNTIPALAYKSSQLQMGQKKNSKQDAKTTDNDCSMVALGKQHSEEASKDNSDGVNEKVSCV

SMILES | Ki [nM]
COc1cccc(CC(=O)Nc2ccc(OCCN3CCCC3)c(-c3c(C)ncnc3C)c2)c1 [Compound 274, N-(3-(4,6-dimethylpyrimidin-5-yl)-4-(2-(pyrrolidin-1-yl)ethoxy)phenyl)-2-(3-methoxyphenyl)acetamide] | 3.92
Cc1ncnc(C)c1-c1cc(NC(=O)Cc2cncc(F)c2)ccc1OCCN1CCCC1 [Compound 277, N-(3-(4,6-dimethylpyrimidin-5-yl)-4-(2-(pyrrolidin-1-yl)ethoxy)phenyl)-2-(5-fluoropyridin-3-yl)acetamide] | 33.4
Cc1ncnc(C)c1-c1cc(NC(=O)Cc2ccc(F)cn2)ccc1OCCN1CCCC1 [Compound 278, N-(3-(4,6-dimethylpyrimidin-5-yl)-4-(2-(pyrrolidin-1-yl)ethoxy)phenyl)-2-(5-fluoropyridin-2-yl)acetamide] | 32.6
Cc1ncnc(C)c1-c1cc(N(C)C(=O)C2CC2)ccc1OCCN1CCCC1 [Compound 279, N-[3-(4,6-dimethylpyrimidin-5-yl)-4-(2-pyrrolidin-1-ylethoxy)phenyl]-N-methyl-cyclopropanecarboxamide] | 65800
Cc1ncnc(C)c1-c1cc(N(C)C(=O)c2ccnn2C)ccc1OCCN1CCCC1 [Compound 280, N-[3-(4,6-dimethylpyrimidin-5-yl)-4-(2-pyrrolidin-1-ylethoxy)phenyl]-N,2-dimethyl-pyrazole-3-carboxamide] | 65800
Cc1ncnc(C)c1-c1cc(NC(=O)CCF)ccc1OCCN1CCCC1 [Compound 281, N-[3-(4,6-dimethylpyrimidin-5-yl)-4-(2-pyrrolidin-1-ylethoxy)phenyl]-3-fluoro-propanamide] | 30.6
Cc1ncnc(C)c1-c1cc(NC(=O)CCCF)ccc1OCCN1CCCC1 [Compound 282, N-[3-(4,6-dimethylpyrimidin-5-yl)-4-(2-pyrrolidin-1-ylethoxy)phenyl]-4-fluoro-butanamide] | 8.84
Cc1ncnc(C)c1-c1cc(NC(=O)C2(O)CC2)ccc1OCCN1CCCC1 [Compound 283, N-[3-(4,6-dimethylpyrimidin-5-yl)-4-(2-pyrrolidin-1-ylethoxy)phenyl]-1-hydroxy-cyclopropanecarboxamide] | 24
COC(C)(C)C(=O)Nc1ccc(OCCN2CCCC2)c(-c2c(C)ncnc2C)c1 [Compound 284, N-[3-(4,6-dimethylpyrimidin-5-yl)-4-(2-pyrrolidin-1-ylethoxy)phenyl]-2-methoxy-2-methyl-propanamide] | 87.5
CCOC1(C(=O)Nc2ccc(OCCN3CCCC3)c(-c3c(C)ncnc3C)c2)CC1 [Compound 285, N-[3-(4,6-dimethylpyrimidin-5-yl)-4-(2-pyrrolidin-1-ylethoxy)phenyl]-1-ethoxy-cyclopropanecarboxamide] | 33.4
COC1(C(=O)Nc2ccc(OCCN3CCCC3)c(-c3c(C)ncnc3C)c2)CCC1 [Compound 286, N-[3-(4,6-dimethylpyrimidin-5-yl)-4-(2-pyrrolidin-1-ylethoxy)phenyl]-1-methoxy-cyclobutanecarboxamide] | 10.1
Cc1ncnc(C)c1-c1cc(NC(=O)CN2CCCC2)ccc1OCCN1CCCC1 [Compound 287, N-[3-(4,6-dimethylpyrimidin-5-yl)-4-(2-pyrrolidin-1-ylethoxy)phenyl]-2-pyrrolidin-1-yl-acetamide] | 3250
Cc1ncnc(C)c1-c1cc(NC(=O)CNC2CC2)ccc1OCCN1CCCC1 [Compound 288, 2-(Cyclopropylamino)-N-[3-(4,6-dimethylpyrimidin-5-yl)-4-(2-pyrrolidin-1-ylethoxy)phenyl]acetamide] | 81.2
Cc1ncnc(C)c1-c1cc(NC(=O)CNC2CCCC2)ccc1OCCN1CCCC1 [Compound 289, 2-(cyclopentylamino)-N-(3-(4,6-dimethylpyrimidin-5-yl)-4-(2-(pyrrolidin-1-yl)ethoxy)phenyl)acetamide] | 123
Cc1cnn(C)c1C(=O)Nc1ccc(OCCN2CCCC2)c(-c2c(C)ncnc2C)c1 [Compound 292, N-(3-(4,6-dimethylpyrimidin-5-yl)-4-(2-(pyrrolidin-1-yl)ethoxy)phenyl)-1,4-dimethyl-1H-pyrazole-5-carboxamide] | 17.6
Cc1ncnc(C)c1-c1cc(NC(=O)Cc2nccs2)ccc1OCCN1CCCC1 [Compound 294, N-(3-(4,6-dimethylpyrimidin-5-yl)-4-(2-(pyrrolidin-1-yl)ethoxy)phenyl)-2-(thiazol-2-yl)acetamide] | 17.9
Cc1ncnc(C)c1-c1cc(NC(=O)c2c(F)ccn2C)ccc1OCCN1CCCC1 [Compound 295, N-[3-(4,6-dimethylpyrimidin-5-yl)-4-(2-pyrrolidin-1-ylethoxy)phenyl]-3-fluoro-1-methyl-pyrrole-2-carboxamide] | 2.01
Cc1ncnc(C)c1-c1cc(NC(=O)C2CC(F)(F)C2)ccc1OCCN1CCCC1 [Compound 296, N-(3-(4,6-dimethylpyrimidin-5-yl)-4-(2-(pyrrolidin-1-yl)ethoxy)phenyl)-3,3-difluorocyclobutane-1-carboxamide] | 4.49
Cc1ncnc(C)c1-c1cc(NC(=O)c2cccc(F)c2)ccc1OCCN1CCCC1 [Compound 297, N-(3-(4,6-dimethylpyrimidin-5-yl)-4-(2-(pyrrolidin-1-yl)ethoxy)phenyl)-3-fluorobenzamide] | 2.71

SMILES | Ki [nM]
Cc1ncnc(C)c1-c1cc(NC(=O)c2ccccc2F)ccc1OCCN1CCCC1 [Compound 298, N-(3-(4,6-dimethylpyrimidin-5-yl)-4-(2-(pyrrolidin-1-yl)ethoxy)phenyl)-2-fluorobenzamide] | 16.9
Cc1ccccc1C(=O)Nc1ccc(OCCN2CCCC2)c(-c2c(C)ncnc2C)c1 [Compound 299, N-(3-(4,6-dimethylpyrimidin-5-yl)-4-(2-(pyrrolidin-1-yl)ethoxy)phenyl)-2-methylbenzamide] | 20.6
Cc1cccc(C(=O)Nc2ccc(OCCN3CCCC3)c(-c3c(C)ncnc3C)c2)c1 [Compound 300, N-(3-(4,6-dimethylpyrimidin-5-yl)-4-(2-(pyrrolidin-1-yl)ethoxy)phenyl)-3-methylbenzamide] | 1.48
Cc1ccc(C(=O)Nc2ccc(OCCN3CCCC3)c(-c3c(C)ncnc3C)c2)cc1 [Compound 301, N-(3-(4,6-dimethylpyrimidin-5-yl)-4-(2-(pyrrolidin-1-yl)ethoxy)phenyl)-4-methylbenzamide] | 3.4
Cc1ncnc(C)c1-c1cc(NC(=O)[C@H]2C[C@@H](F)C2)ccc1OCCN1CCCC1 [Compound 302, (1s,3s)-N-(3-(4,6-dimethylpyrimidin-5-yl)-4-(2-(pyrrolidin-1-yl)ethoxy)phenyl)-3-fluorocyclobutane-1-carboxamide] | 3.18
Cc1ncnc(C)c1-c1cc(NC(=O)[C@H]2C[C@H](F)C2)ccc1OCCN1CCCC1 [Compound 303, (1r,3r)-N-(3-(4,6-dimethylpyrimidin-5-yl)-4-(2-(pyrrolidin-1-yl)ethoxy)phenyl)-3-fluorocyclobutane-1-carboxamide] | 9.36
COc1cccc(CC(=O)Nc2ccc(OCCN3CCC3)c(-c3c(C)ncnc3C)c2)c1 [Compound 311, N-(4-(2-(azetidin-1-yl)ethoxy)-3-(4,6-dimethylpyrimidin-5-yl)phenyl)-2-(3-methoxyphenyl)acetamide] | 3.01
COc1ccc(CC(=O)Nc2ccc(OCCN3CCC3)c(-c3c(C)ncnc3C)c2)cc1 [Compound 313, N-(4-(2-(azetidin-1-yl)ethoxy)-3-(4,6-dimethylpyrimidin-5-yl)phenyl)-2-(4-methoxyphenyl)acetamide] | 1.7
Cc1ncnc(C)c1-c1cc(NC(=O)Cc2ccc(F)cn2)ccc1OCCN1CCC1 [Compound 315, N-(4-(2-(azetidin-1-yl)ethoxy)-3-(4,6-dimethylpyrimidin-5-yl)phenyl)-2-(5-fluoropyridin-2-yl)acetamide] | 12.6
CCOC1CC1C(=O)Nc1ccc(OCCN2CCC2)c(-c2c(C)ncnc2C)c1 (stereo not shown) [Compound 317, N-(4-(2-(azetidin-1-yl)ethoxy)-3-(4,6-dimethylpyrimidin-5-yl)phenyl)-2-ethoxycyclopropane-1-carboxamide] | 96.3
Cc1ncnc(C)c1-c1cc(NC(=O)c2cccc(F)c2)ccc1OCCN1CCC1 [Compound 320, N-(4-(2-(azetidin-1-yl)ethoxy)-3-(4,6-dimethylpyrimidin-5-yl)phenyl)-3-fluorobenzamide] | 1.77
Cc1cccc(C(=O)Nc2ccc(OCCN3CCC3)c(-c3c(C)ncnc3C)c2)c1 [Compound 322, N-(4-(2-(azetidin-1-yl)ethoxy)-3-(4,6-dimethylpyrimidin-5-yl)phenyl)-3-methylbenzamide] | 3.39
Cc1ccc(C(=O)Nc2ccc(OCCN3CCC3)c(-c3c(C)ncnc3C)c2)cc1 [Compound 323, N-(4-(2-(azetidin-1-yl)ethoxy)-3-(4,6-dimethylpyrimidin-5-yl)phenyl)-4-methylbenzamide] | 3.77
Cc1ncnc(C)c1-c1cc(NC(=O)c2ccccc2C#N)ccc1OCCN1CCC1 [Compound 324, N-(4-(2-(azetidin-1-yl)ethoxy)-3-(4,6-dimethylpyrimidin-5-yl)phenyl)-2-cyanobenzamide] | 59700
Cc1ncnc(C)c1-c1cc(NC(=O)c2ccc(C#N)cc2)ccc1OCCN1CCC1 [Compound 326, N-(4-(2-(azetidin-1-yl)ethoxy)-3-(4,6-dimethylpyrimidin-5-yl)phenyl)-4-cyanobenzamide] | 13.7
Cc1cnn(C)c1C(=O)Nc1ccc(OCCN2CCC2)c(-c2c(C)ncnc2C)c1 [Compound 327, N-(4-(2-(azetidin-1-yl)ethoxy)-3-(4,6-dimethylpyrimidin-5-yl)phenyl)-1,4-dimethyl-1H-pyrazole-5-carboxamide] | 15.9
Cc1ncnc(C)c1-c1cc(NC(=O)C2(CF)CC2)ccc1OCCN1CCC1 [Compound 328, N-(4-(2-(azetidin-1-yl)ethoxy)-3-(4,6-dimethylpyrimidin-5-yl)phenyl)-1-(fluoromethyl)cyclopropane-1-carboxamide] | 13.6
Cc1ncnc(C)c1-c1cc(NC(=O)Cc2nccs2)ccc1OCCN1CCC1 [Compound 329, N-(4-(2-(azetidin-1-yl)ethoxy)-3-(4,6-dimethylpyrimidin-5-yl)phenyl)-2-(thiazol-2-yl)acetamide] | 11.5
